Values quoted from earlier work as cited in US7422908B2, “Chemiluminescent 1,2-dioxetanes” (priority 2002, dated 2008).

Tests used:
[1] = compared with 1,2-dioxetanes (14) and (15); CH3 group replaced with CH2CH2CH2COOH
[2] = thermal decomposition

decomposes at (temperature) [2] [°C]	Structure (SMILES)	solubility in an aqueous system [1]
–	O=C(O)CCCOC1(c2cccc(OP(=O)(O)O)c2)OOC12C1CC3CC(C1)CC2C3 (centres unmarked) [Dioxetane 16]	more soluble in an aqueous system than 1,2-dioxetane (14) and (15)
150	C1C2CC3CC1CC(C2)C31OOC12C1CC3CC(C1)CC2C3 (centres unmarked) [Dioxetane 5]	–
